Values of other authors, collected in patent publication US4370313A, “Nitrofurantoin dosage form” (Eaton Laboratories, Inc., priority 1981, dated 1983).

O=C1CN(/N=C/c2ccc([N+](=O)[O-])o2)C(=O)N1 [nitrofurantoin]
preferred absorption in a limited segment of the human gastrointestinal tract: duodenum
expected urinary level peaks (immediately available dose, conventional dosage forms, human): 2 to 3 h
